The kinase profiling compilation of Christmann-Franck et al. (2016)

Tests used:
Test in all cases: radiometric filter-binding kinase assay, Kinase HotSpot
Details in all cases: compound 0.5 µM; ATP 10 µM
[1] = target: NUAK1 (human) (UniProt O60285)
[2] = target: EPHA7 (human) (UniProt Q15375)
[3] = target: EPHB1 (human) (UniProt P54762)
[4] = target: CSNK2A2 (human) (UniProt P19784)
[5] = target: TAOK3 (human) (UniProt Q9H2K8)
[6] = target: TSSK1B (human) (UniProt Q9BXA7)
[7] = target: LIMK1 (human) (UniProt P53667)
[8] = target: CLK4 (human) (UniProt Q9HAZ1)
Chain of CLK4 (human) (Q9HAZ1 whole entry, looked up): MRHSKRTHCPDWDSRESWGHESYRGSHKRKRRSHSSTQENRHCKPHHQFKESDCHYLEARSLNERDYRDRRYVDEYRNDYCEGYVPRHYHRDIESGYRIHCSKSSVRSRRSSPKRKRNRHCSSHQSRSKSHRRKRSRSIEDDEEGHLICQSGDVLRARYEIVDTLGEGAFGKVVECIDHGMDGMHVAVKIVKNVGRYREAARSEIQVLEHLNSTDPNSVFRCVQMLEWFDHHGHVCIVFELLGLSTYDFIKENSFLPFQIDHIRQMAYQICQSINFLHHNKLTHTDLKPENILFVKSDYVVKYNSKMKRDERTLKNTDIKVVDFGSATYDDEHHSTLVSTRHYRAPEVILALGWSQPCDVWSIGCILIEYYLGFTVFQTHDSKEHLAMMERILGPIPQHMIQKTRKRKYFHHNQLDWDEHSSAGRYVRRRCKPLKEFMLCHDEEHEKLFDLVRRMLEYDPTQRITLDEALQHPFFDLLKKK

[9] = target: FGFR1 (human) (UniProt P11362)
[10] = target: RPS6KA1 KD1 KD2 (human) (UniProt Q15418)
[11] = target: MAPK10 (human) (UniProt P53779)
[12] = target: ABL2 (human) (UniProt P42684)
[13] = target: CDK1 CCNB1 (human) (UniProt P06493+P14635)
[14] = target: MAP4K2 (human) (UniProt Q12851)
Chain of MAP4K2 (human) (Q12851 whole entry, looked up): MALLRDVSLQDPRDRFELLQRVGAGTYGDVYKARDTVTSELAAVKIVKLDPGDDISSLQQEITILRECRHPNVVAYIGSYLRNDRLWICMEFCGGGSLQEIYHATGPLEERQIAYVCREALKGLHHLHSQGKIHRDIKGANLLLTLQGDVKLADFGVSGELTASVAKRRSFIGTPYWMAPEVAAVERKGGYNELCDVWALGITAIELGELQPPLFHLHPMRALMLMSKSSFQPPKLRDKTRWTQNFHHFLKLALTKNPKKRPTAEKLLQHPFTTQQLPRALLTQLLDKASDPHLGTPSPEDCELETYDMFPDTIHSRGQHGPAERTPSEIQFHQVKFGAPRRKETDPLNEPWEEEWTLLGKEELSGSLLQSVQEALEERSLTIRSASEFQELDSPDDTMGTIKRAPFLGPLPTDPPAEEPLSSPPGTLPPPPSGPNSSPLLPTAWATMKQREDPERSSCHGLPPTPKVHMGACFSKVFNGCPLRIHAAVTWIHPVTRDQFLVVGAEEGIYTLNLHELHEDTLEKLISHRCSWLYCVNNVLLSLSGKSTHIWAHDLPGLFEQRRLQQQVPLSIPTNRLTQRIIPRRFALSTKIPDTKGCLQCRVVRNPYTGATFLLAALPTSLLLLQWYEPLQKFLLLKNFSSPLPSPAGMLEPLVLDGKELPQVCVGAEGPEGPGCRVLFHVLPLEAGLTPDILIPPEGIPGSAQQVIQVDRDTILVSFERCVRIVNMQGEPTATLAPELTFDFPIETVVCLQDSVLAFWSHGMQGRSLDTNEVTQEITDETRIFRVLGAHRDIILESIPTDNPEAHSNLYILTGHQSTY

[15] = target: PKN1 (human) (UniProt Q16512)
[16] = target: IGF1R (human) (UniProt P08069)
[17] = target: ZAP70 (human) (UniProt P43403)
[18] = target: AKT2 (human) (UniProt P31751)
Chain of AKT2 (human) (P31751 whole entry, looked up): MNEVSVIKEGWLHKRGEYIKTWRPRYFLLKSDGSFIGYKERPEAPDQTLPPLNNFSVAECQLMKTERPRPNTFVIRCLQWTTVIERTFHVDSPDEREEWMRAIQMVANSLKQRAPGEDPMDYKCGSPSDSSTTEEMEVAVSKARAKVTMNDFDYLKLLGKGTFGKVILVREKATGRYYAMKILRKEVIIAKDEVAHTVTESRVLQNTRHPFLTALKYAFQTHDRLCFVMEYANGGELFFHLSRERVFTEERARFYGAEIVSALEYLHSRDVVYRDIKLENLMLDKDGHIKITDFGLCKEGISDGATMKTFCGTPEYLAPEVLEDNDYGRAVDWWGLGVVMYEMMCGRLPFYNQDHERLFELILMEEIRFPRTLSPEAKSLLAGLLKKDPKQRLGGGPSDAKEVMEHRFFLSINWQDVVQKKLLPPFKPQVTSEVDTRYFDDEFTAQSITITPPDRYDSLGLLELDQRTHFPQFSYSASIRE

[19] = target: TAOK1 (human) (UniProt Q7L7X3)
Chain of TAOK1 (human) (Q7L7X3 whole entry, looked up): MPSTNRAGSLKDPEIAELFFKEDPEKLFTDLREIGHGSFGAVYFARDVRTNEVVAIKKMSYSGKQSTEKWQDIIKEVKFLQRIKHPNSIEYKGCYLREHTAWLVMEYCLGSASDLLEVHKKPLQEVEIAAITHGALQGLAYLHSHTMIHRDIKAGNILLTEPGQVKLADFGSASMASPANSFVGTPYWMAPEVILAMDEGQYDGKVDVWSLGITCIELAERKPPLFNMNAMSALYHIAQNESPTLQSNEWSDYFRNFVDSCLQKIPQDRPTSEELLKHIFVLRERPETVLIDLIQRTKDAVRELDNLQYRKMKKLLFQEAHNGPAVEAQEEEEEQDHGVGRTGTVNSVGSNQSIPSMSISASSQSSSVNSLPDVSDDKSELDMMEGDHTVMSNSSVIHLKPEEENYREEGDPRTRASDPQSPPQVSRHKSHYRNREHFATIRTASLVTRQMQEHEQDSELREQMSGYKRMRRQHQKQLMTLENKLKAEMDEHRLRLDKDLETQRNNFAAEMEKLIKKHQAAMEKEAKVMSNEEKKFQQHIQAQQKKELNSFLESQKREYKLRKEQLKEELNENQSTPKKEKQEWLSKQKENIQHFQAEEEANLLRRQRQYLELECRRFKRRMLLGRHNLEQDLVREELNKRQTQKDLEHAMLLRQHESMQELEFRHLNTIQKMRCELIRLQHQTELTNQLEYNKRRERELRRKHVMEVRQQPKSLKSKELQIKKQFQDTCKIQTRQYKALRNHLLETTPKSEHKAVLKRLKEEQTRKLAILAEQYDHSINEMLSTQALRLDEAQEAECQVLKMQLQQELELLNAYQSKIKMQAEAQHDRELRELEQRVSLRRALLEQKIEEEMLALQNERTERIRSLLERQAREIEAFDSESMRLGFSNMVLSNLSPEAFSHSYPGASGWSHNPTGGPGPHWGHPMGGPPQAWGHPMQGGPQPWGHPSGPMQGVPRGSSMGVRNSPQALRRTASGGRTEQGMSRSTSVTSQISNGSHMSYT

[20] = target: FLT1 (human) (UniProt P17948)
[21] = target: LRRK2 (human) (UniProt Q5S007)
[22] = target: INSR (human) (UniProt P06213)
[23] = target: TNK2 (human) (UniProt Q07912)
[24] = target: RAF1 (human) (UniProt P04049)
[25] = target: PASK (human) (UniProt Q96RG2)
[26] = target: PRKD1 (human) (UniProt Q15139)
[27] = target: ABL1 (human) (UniProt P00519)
[28] = target: PRKACA (human) (UniProt P17612)
[29] = target: STK16 (human) (UniProt O75716)
Chain of STK16 (human) (O75716 whole entry, looked up): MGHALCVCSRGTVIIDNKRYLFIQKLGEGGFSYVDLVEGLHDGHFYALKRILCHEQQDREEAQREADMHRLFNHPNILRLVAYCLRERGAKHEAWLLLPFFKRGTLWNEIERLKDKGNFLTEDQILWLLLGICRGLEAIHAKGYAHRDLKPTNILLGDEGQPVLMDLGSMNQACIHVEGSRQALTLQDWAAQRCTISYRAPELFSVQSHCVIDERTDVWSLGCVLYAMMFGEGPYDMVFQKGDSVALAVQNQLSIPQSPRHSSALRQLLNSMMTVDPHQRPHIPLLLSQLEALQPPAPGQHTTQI

[30] = target: TXK (human) (UniProt P42681)
[31] = target: STK10 (human) (UniProt O94804)
Chain of STK10 (human) (O94804 whole entry, looked up): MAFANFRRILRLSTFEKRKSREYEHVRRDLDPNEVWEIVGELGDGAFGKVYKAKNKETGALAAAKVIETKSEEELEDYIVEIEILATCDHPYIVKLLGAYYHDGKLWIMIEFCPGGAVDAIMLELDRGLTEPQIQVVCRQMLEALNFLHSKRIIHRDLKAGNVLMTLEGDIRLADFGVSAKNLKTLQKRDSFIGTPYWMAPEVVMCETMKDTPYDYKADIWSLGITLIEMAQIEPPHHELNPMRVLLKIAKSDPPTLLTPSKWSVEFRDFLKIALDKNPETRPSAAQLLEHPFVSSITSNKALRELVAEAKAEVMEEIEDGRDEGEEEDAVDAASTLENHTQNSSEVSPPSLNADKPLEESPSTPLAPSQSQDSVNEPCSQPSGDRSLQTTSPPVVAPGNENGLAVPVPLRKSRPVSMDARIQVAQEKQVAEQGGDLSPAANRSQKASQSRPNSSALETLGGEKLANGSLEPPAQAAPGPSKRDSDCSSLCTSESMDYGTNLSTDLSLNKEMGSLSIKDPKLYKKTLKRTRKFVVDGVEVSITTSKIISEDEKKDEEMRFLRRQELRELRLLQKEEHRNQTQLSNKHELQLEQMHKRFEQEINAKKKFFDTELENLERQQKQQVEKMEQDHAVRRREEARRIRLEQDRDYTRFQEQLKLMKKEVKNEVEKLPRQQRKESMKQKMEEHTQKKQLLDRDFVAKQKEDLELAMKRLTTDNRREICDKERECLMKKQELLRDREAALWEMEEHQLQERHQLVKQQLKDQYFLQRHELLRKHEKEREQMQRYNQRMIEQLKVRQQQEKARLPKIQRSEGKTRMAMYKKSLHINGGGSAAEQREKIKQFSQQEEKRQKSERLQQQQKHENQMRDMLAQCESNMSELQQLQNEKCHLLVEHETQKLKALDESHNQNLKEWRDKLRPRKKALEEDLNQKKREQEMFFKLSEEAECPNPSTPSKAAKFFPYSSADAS

[32] = target: FGFR4 (human) (UniProt P22455)
[33] = target: MAPK14 (human) (UniProt Q16539)
Chain of MAPK14 (human) (Q16539 whole entry, looked up): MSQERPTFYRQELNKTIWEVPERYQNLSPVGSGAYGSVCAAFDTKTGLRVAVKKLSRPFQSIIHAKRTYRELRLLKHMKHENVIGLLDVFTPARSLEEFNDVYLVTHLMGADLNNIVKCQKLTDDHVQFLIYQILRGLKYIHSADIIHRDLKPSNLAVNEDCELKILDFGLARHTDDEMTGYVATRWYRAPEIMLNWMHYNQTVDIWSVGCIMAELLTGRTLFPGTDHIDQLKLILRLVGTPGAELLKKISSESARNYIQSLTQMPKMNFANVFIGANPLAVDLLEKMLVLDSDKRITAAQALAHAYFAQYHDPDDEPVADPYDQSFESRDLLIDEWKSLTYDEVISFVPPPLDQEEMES

[34] = target: MARK3 (human) (UniProt P27448)
[35] = target: DYRK1A (human) (UniProt Q13627)
[36] = target: RPS6KA6 KD1 KD2 (human) (UniProt Q9UK32)
[37] = target: CAMKK1 (human) (UniProt Q8N5S9)
[38] = target: NTRK2 (human) (UniProt Q16620)
[39] = target: PAK7 (human) (UniProt Q9P286)
[40] = target: RPS6KB1 (human) (UniProt P23443)
Chain of RPS6KB1 (human) (P23443 whole entry, looked up): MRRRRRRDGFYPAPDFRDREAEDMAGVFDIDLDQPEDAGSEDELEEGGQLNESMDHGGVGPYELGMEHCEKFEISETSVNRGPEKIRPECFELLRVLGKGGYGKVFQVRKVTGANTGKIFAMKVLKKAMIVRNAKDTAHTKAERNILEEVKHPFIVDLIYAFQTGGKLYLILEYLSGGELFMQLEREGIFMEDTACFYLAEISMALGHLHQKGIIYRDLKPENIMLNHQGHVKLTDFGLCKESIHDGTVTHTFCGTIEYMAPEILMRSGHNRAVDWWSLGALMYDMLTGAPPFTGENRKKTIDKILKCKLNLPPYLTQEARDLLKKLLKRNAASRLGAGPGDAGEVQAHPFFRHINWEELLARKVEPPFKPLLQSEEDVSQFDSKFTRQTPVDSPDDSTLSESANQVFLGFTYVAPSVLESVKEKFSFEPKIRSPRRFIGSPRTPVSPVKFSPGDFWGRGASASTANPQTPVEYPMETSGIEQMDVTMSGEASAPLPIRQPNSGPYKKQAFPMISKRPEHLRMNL

[41] = target: NEK11 (human) (UniProt Q8NG66)

Structure (SMILES): O=S(=O)(NCCNC/C=C/c1ccc(Br)cc1)c1cccc2cnccc12
- residual activity [1]: 32.8%
- residual activity [2]: 109%
- residual activity [3]: 106%
- residual activity [4]: 86.6%
- residual activity [5]: 95.4%
- residual activity [6]: 93.5%
- residual activity [7]: 90.6%
- residual activity [8]: 119%
- residual activity [9]: 87.6%
- residual activity [10]: 68.4%
- residual activity [11]: 92.6%
- residual activity [12]: 84.4%
- residual activity [13]: 93.3%
- residual activity [14]: 51.1%
- residual activity [15]: 14.3%
- residual activity [16]: 104%
- residual activity [17]: 97.9%
- residual activity [18]: 75.4%
- residual activity [19]: 101%
- residual activity [20]: 90.8%
- residual activity [21]: 86.2%
- residual activity [22]: 94.3%
- residual activity [23]: 88.3%
- residual activity [24]: 96.4%
- residual activity [25]: 94.5%
- residual activity [26]: 98.7%
- residual activity [27]: 101%
- residual activity [28]: 10.5%
- residual activity [29]: 94.4%
- residual activity [30]: 86.8%
- residual activity [31]: 89.2%
- residual activity [32]: 85.3%
- residual activity [33]: 105%
- residual activity [34]: 96.2%
- residual activity [35]: 98.5%
- residual activity [36]: 71.8%
- residual activity [37]: 99.1%
- residual activity [38]: 95.1%
- residual activity [39]: 91.4%
- residual activity [40]: 25.6%
- residual activity [41]: 92.7%

Structure (SMILES): CCCCc1c(-c2ccc(O)cc2)[nH]c2nccnc12
- residual activity [1]: 19.1%
- residual activity [2]: 89%
- residual activity [3]: 78%
- residual activity [4]: 94.7%
- residual activity [5]: 82.5%
- residual activity [6]: 62%
- residual activity [7]: 64.3%
- residual activity [8]: 64.3%
- residual activity [9]: 81.8%
- residual activity [10]: 82.6%
- residual activity [11]: 100%
- residual activity [12]: 64.9%
- residual activity [13]: 45.2%
- residual activity [14]: 28.2%
- residual activity [15]: 90.3%
- residual activity [16]: 87.3%
- residual activity [17]: 94.4%
- residual activity [18]: 95.3%
- residual activity [19]: 70.9%
- residual activity [20]: 86.3%
- residual activity [21]: 80%
- residual activity [22]: 99.6%
- residual activity [23]: 49.9%
- residual activity [24]: 106%
- residual activity [25]: 99.5%
- residual activity [26]: 77.7%
- residual activity [27]: 79%
- residual activity [28]: 89.7%
- residual activity [29]: 55.4%
- residual activity [30]: 65%
- residual activity [31]: 82.8%
- residual activity [32]: 91.8%
- residual activity [33]: 102%
- residual activity [34]: 88.2%
- residual activity [35]: 92.9%
- residual activity [36]: 72.7%
- residual activity [37]: 89.7%
- residual activity [38]: 73.7%
- residual activity [39]: 82.9%
- residual activity [40]: 105%
- residual activity [41]: 92.5%
